Each molecule was assayed against T1, USP28 (USP28-5(1-1077)-TEV-6*His; LifeSensors) (Homo sapiens, UniProt Q96RU2) (assay: Ubiquitin-Rhodamine 110 Assay for USP28 Activity, Example A-1(b)). Conditions: Ubiquitin-Rhodamine 110 assay, Example A-1(b).
T1 construct: construct USP28 (USP28-5(1-1077)-TEV-6*His; LifeSensors); TEV cleavage site (C); 6xHis (C); purchased LifeSensors
T1 sequence (Q96RU2 1-1077): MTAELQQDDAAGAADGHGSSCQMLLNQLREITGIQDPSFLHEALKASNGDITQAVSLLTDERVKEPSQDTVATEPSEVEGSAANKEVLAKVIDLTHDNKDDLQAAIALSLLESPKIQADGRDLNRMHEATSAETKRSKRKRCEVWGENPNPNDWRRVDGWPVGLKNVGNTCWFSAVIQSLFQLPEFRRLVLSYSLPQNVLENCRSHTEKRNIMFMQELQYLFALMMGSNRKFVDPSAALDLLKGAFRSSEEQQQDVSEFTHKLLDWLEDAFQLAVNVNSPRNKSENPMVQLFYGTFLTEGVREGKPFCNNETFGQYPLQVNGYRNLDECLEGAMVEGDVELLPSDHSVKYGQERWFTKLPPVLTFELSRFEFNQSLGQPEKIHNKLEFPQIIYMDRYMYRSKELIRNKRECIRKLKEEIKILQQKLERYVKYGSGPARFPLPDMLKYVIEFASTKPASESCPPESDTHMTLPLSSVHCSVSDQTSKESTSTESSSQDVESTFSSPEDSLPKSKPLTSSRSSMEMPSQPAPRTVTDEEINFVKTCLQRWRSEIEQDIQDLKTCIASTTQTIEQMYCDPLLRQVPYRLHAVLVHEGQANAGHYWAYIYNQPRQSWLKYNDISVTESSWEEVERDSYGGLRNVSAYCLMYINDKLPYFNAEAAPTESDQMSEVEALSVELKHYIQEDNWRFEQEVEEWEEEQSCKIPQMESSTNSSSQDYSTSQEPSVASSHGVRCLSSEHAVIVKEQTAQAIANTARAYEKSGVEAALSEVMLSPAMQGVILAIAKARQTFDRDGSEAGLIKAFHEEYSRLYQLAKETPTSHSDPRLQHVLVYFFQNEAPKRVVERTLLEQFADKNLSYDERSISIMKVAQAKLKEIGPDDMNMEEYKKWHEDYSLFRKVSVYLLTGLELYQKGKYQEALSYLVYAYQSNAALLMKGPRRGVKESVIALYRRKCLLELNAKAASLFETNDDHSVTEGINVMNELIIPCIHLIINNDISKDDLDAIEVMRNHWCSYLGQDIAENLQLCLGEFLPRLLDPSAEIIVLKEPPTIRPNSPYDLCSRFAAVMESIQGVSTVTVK
Assay type: biochemical
In short: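 Single-point screening used 10 μM compound with 90 min room-temperature incubation; follow-up dose-responses (25 μM top, 3-fold) used 75 pM USP28 1-1077 construct, 30 min compound preincubation, 25 nM Ub-Rh110, 20 min reaction, citric acid quench. Rh110 fluorescence normalised to no-enzyme and DMSO controls; IC50 from 4-parameter logistic fit.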

SMILES | USP28 A-1(b) IC50 range
Cc1ccc2c(N)c(C(=O)N[C@H]3COc4cc(C5(F)CCNCC5)ccc4C3)sc2n1 [Example 8-1, (R)-3-Amino-N-(7-(4-fluoropiperidin-4-yl)chroman-3-yl)-6-methylthieno[2,3-b]pyridine-2-carboxamide] | ++++ (0.001-0.05 μM)
Cc1ccc2c(N)c(C(=O)N[C@H]3COc4cc(N5CCNCC5)cc(F)c4C3)sc2n1 [Example 10-1, (R)-3-amino-N-(5-fluoro-7-(piperazin-1-yl)chroman-3-yl)-6-methylthieno[2,3-b]pyridine-2-carboxamide] | +++ (0.05-0.2 μM)
Cc1ccc2c(N)c(C(=O)N[C@@H]3COc4cc(N5CCNCC5)cc(F)c4C3)sc2n1 [Example 10-5, (S)-3-amino-N-(5-fluoro-7-(piperazin-1-yl)chroman-3-yl)-6-methylthieno[2,3-b]pyridine-2-carboxamide] | + (>2 μM)
Cc1ccc2c(N)c(C(=O)N[C@H]3COc4cc(N5CC6CNCC(C5)O6)cc(F)c4C3)sc2n1 [Example 10-6, N-((3R)-7-(9-oxa-3,7-diazabicyclo[3.3.1]nonan-3-yl)-5-fluorochroman-3-yl)-3-amino-6-methylthieno[2,3-b]pyridine-2-carboxamide] | ++++ (0.001-0.05 μM)
Cc1cc(C)c2c(N)c(C(=O)N[C@H]3COc4cc(N5CC6CC(C5)N6)cc(F)c4C3)sc2n1 [Example 10-7, N-((3R)-7-(3,6-diazabicyclo[3.1.1]heptan-3-yl)-5-fluorochroman-3-yl)-3-amino-4,6-dimethylthieno[2,3-b]pyridine-2-carboxamide] | +++ (0.05-0.2 μM)
Cc1cnc2c(N)c(C(=O)N[C@H]3COc4cc(N5CC6CC(C5)N6)cc(F)c4C3)sc2n1 [Example 10-8, N-((3R)-7-(3,6-diazabicyclo[3.1.1]heptan-3-yl)-5-fluorochroman-3-yl)-7-amino-3-methylthieno[2,3-b]pyrazine-6-carboxamide] | +++ (0.05-0.2 μM)
Cc1cc(C)c2c(N)c(C(=O)N[C@H]3COc4cc(N5CCNCC5)cc(F)c4C3)sc2n1 [Example 10-9, (R)-3-amino-N-(5-fluoro-7-(piperazin-1-yl)chroman-3-yl)-4,6-dimethylthieno[2,3-b]pyridine-2-carboxamide] | +++ (0.05-0.2 μM)
Cc1cnc2c(N)c(C(=O)N[C@H]3COc4cc(N5CCNCC5)cc(F)c4C3)sc2n1 [Example 10-10, (R)-7-amino-N-(5-fluoro-7-(piperazin-1-yl)chroman-3-yl)-3-methylthieno[2,3-b]pyrazine-6-carboxamide] | +++ (0.05-0.2 μM)
COc1ccc2c(N)c(C(=O)N[C@H]3COc4cc(N5CCNCC5)cc(F)c4C3)sc2n1 [Example 10-11, (R)-3-amino-N-(5-fluoro-7-(piperazin-1-yl)chroman-3-yl)-6-methoxythieno[2,3-b]pyridine-2-carboxamide] | ++ (0.2-2 μM)
Cc1cnc2c(N)c(C(=O)N[C@H]3COc4cc(N5CC6CNCC(C5)O6)cc(F)c4C3)sc2n1 [Example 10-12, N-((3R)-7-(9-oxa-3,7-diazabicyclo[3.3.1]nonan-3-yl)-5-fluorochroman-3-yl)-7-amino-3-methylthieno[2,3-b]pyrazine-6-carboxamide] | ++++ (0.001-0.05 μM)
Cc1cc(C)c2c(N)c(C(=O)N[C@H]3COc4cc(N5CC6CNCC(C5)O6)cc(F)c4C3)sc2n1 [Example 10-13, N-((3R)-7-(9-oxa-3,7-diazabicyclo[3.3.1]nonan-3-yl)-5-fluorochroman-3-yl)-3-amino-4,6-dimethylthieno[2,3-b]pyridine-2-carboxamide] | ++++ (0.001-0.05 μM)
Cc1cc(C(F)(F)F)c2c(N)c(C(=O)N[C@H]3COc4cc(N5CCNCC5)cc(F)c4C3)sc2n1 [Example 10-14, (R)-3-amino-N-(5-fluoro-7-(piperazin-1-yl)chroman-3-yl)-6-methyl-4-(trifluoromethyl)thieno[2,3-b]pyridine-2-carboxamide] | ++ (0.2-2 μM)
Cc1ccc2c(N)c(C(=O)N[C@H]3CCc4cc(N5CC6CCC(C5)N6)ccc4C3)sc2n1 [Example 11-1, N-((2S)-6-(3,8-diazabicyclo[3.2.1]octan-3-yl)-1,2,3,4-tetrahydronaphthalen-2-yl)-3-amino-6-methylthieno[2,3-b]pyridine-2-carboxamide] | +++ (0.05-0.2 μM)
Cc1ccc2c(N)c(C(=O)N[C@@H]3CCc4cc(N5CC6CCC(C5)N6)ccc4C3)sc2n1 [Example 11-2, N-((2R)-6-(3,8-diazabicyclo[3.2.1]octan-3-yl)-1,2,3,4-tetrahydronaphthalen-2-yl)-3-amino-6-methylthieno[2,3-b]pyridine-2-carboxamide] | ++ (0.2-2 μM)

Same assay, conditions: Ubiquitin-Rhodamine 110 assay, format Example A-1(b)

SMILES | USP28 A-1(b) IC50 range
Cc1ccc2c(N)c(C(=O)N[C@H]3CCc4c(F)c(N5CCNCC5)cc(F)c4C3)sc2n1 (single isomer, unassigned) [Example 22-1] | ++ (0.2-2 μM)
Cc1ccc2c(N)c(C(=O)N[C@@H]3CCc4c(F)c(N5CCNCC5)cc(F)c4C3)sc2n1 (single isomer, unassigned) [Example 22-2] | +++ (0.05-0.2 μM)
Cc1ccc2c(N)c(C(=O)N[C@H]3COc4cc(N5CC6CCC(C5)N6)c(F)c(F)c4C3)sc2n1 [Example 13-3, N-((3R)-7-(3,8-diazabicyclo[3.2.1]octan-3-yl)-5,6-difluorochroman-3-yl)-3-amino-6-methylthieno[2,3-b]pyridine-2-carboxamide] | + (>2 μM)
Cc1ccc2c(N)c(C(=O)N[C@@H]3COc4cc(N5CC6CCC(C5)N6)c(F)c(F)c4C3)sc2n1 [Example 13-4, N-((3S)-7-(3,8-diazabicyclo[3.2.1]octan-3-yl)-5,6-difluorochroman-3-yl)-3-amino-6-methylthieno[2,3-b]pyridine-2-carboxamide] | ++++ (0.001-0.05 μM)
Cc1ccc2c(N)c(C(=O)N[C@H]3COc4cc(N5CCNCC5)c(Cl)cc4C3)sc2n1 [Example 13-5, (R)-3-amino-N-(6-chloro-7-(piperazin-1-yl)chroman-3-yl)-6-methylthieno[2,3-b]pyridine-2-carboxamide] | + (>2 μM)
Cc1ccc2c(N)c(C(=O)N[C@@H]3COc4c(ccc(N5CCNCC5)c4Cl)C3)sc2n1 [Example 13-8, (S)-3-amino-N-(8-chloro-7-(piperazin-1-yl)chroman-3-yl)-6-methylthieno[2,3-b]pyridine-2-carboxamide] | + (>2 μM)
Cc1ccc2c(N)c(C(=O)N[C@H]3COc4c(ccc(N5CCNCC5)c4Cl)C3)sc2n1 [Example 13_7, (R)-3-amino-N-(8-chloro-7-(piperazin-1-yl)chroman-3-yl)-6-methylthieno[2,3-b]pyridine-2-carboxamide] | +++ (0.05-0.2 μM)
Cc1ccc2c(N)c(C(=O)N[C@H]3COc4cc(N5CCNCC5)ncc4C3)sc2n1 [Example 16, (R)-3-Amino-6-methyl-N-(7-(piperazin-1-yl)-3,4-dihydro-2H-pyrano[3,2-c]pyridin-3-yl)thieno[2,3-b]pyridine-2-carboxamide] | ++ (0.2-2 μM)

Reference: patent US11524966B1 (Valo Early Discovery, Inc., priority 2017, dated 2022)
